In ChEMBL document CHEMBL5214964 (Bioorg Med Chem Lett, 2022):

Key:
in vivo [1] = settings: rat, plasma, ip, 20 mg/kg
in vivo [2] = settings: rat, plasma, ip, 20 mg/kg; remark: listed apart in the source
in vivo [3] = settings: rat, plasma, ip, 20 mg/kg; remark: listed apart in the source
in vivo [4] = settings: rat, synovial fluid, ip, 20 mg/kg

Compound: NCCNS(=O)(=O)c1ccc(-c2ccc(CSc3nc4c(c(=O)[nH]3)CCC4)cc2)cc1
- concentration at 1 h (in vivo [1]): 115 µM
- concentration at 2 h (in vivo [2]): 85 µM
- concentration at 4 h (in vivo [3]): 57 µM
- concentration at 4 h (in vivo [4]): 3.27 µM
